Test results taken from PubChem BioAssay AID2511 (Broad Institute, 2010).

Test system: human washed platelets, SFLLRN-induced P-selectin, flow cytometry
Experiment: PAR1 agonist-induced platelet activation inhibition – cell-based, fluorescence, flow cytometry, human platelets, dose response (AID 2511)
Settings: retest run 2

| SMILES | EC50 [µM] |
| --- | --- |
| O=C(Nc1cccc(NC(=O)c2ccccc2Cl)c1)c1ccco1 | < 1 |
| CCC(=O)Nc1cccc(NC(=O)c2ccccc2Br)c1 | < 3 |
| Cc1ccc(-n2c(N)c(C#N)c(-c3ccccc3)c(C#N)c2=O)cc1 | < 3 |
| CCCCC(=O)Nc1cccc(NC(=O)c2ccccc2Br)c1 | < 10 |
| CCCC(=O)Nc1cccc(NC(=O)c2ccccc2Br)c1 | < 1 |
